Results from patent publication US9198915B2, “Methods involving aldose reductase inhibitors” (The Board of Regents of The University of Texas System, priority 2007, dated 2015).

Columns and labels:
Format in all cases: cell-based, human
SAEC [1] = test: RW-induced apoptosis in SAEC (annexin V/PI flow cytometry); conditions: zopolrestat 20 μM, RW 150 μg/ml, 18 h
Experimental: Small Airway Epithelial cells (SAEC) obtained from Cambrex Bio Science Walkersville, Inc. (Walkersville, Md.) contains normal human SAEC from distal airspace of donor. The cells were cultured according to the supplier's instructions at 37° C. in humidified atmosphere containing 95% air and 5% CO2 in small airway epithelial basal medium (SABM) with supplements containing 52 μg/ml bovine pituitary extract, 0.5 ng/ml human recombinant epidermal growth factor (EGF), 0.5 μg/ml epinephrine, 1 μg/ml hydrocortisone, 10 μg/ml transferrin, 5 μg/ml insulin, 0.1 ng/ml retinoic acid (RA), 6.5 ng/ml triiodothyronine, 50 μg/ml Gentamicin/Amphotericin-B (GA-1000), and 50 μg/ml fatty acid-free bovine serum albumin (BSA).
Approximately 2×10^5 SAEC/well were plated in 6-well plates in triplicate for each group. After 24 hours, the medium was replaced with serum-free SABM with or without zopolrestat (20 μM). The cells were induced by RW (150 μg/mL) and incubated for 18 h. Apoptotic cell death was examined using the annexin V-FITC/PI, (molecular probes, Invitrogen) according to the manufacturer's instructions. Twenty thousand events were acquired for each sample and analyzed by flow cytometry using the LYSIS II software (FACScan, BD Pharmingen).

SAEC [2] = test: RW-induced ROS generation in SAEC (DHE); conditions: SAEC preincubated with AR inhibitor, RW 150 μg/mL
Experimental: Dihydroethidium (DHE, Molecular Probes) staining for superoxide was carried out as described previously. Briefly, Approximately 1×10^5 cells were seeded on chambered slides and starved in serum-free SABM with or without AR inhibitor for 24 h. The cells were treated with RW for 16 h. SAEC were rinsed with cold PBS and incubated in PBS containing HEt (2.5 mmol/L) at 37° C. for 15 minutes. Cells were rinsed in PBS and mounted with Vectashield Hard Set™ mounting medium with DAPI (Vector Laboratories Inc., Burlingame, Calif.). The image of ethidium staining was measured with a Nikon epifluorescence microscope with a 585 nm long-pass filter.

NF-κB and AP-1 = test: RW-induced NF-κB and AP-1 activation in SAEC (EMSA)
Experimental: The SAEC were pretreated with or without AR inhibitors for 24 h in starving medium, followed by treatment with Ragweed pollens (RW) (50 μg/ml) for 2 h at 37° C. The nuclear extracts were prepared as described. Briefly, SAEC were harvested and washed with cold PBS and suspended in 0.1 ml of hypotonic lysis buffer containing protease inhibitors for 10 min. The cells were then lysed with 5 μl of 10% Nonidet P-40. The homogenate was centrifuged (6000 rpm; 1 min.), and supernatant containing the cytoplasmic extracts was stored frozen at −80° C. The nuclear pellet was resuspended in 50 μl ice-cold nuclear extraction buffer. After 30 min of intermittent mixing, the extract was centrifuged (12000 rpm; 15 min.), and supernatants containing nuclear extracts were secured. The protein content was measured by the Bradford method. If they were not used immediately, they were stored at −80° C. The Consensus oligonucleotides for NF-κB and AP-1 transcription factors were 5′-end labeled using T4 polynucleotide kinase. EMSA was performed as described. The specificity of the assay was examined by competition with an excess of unlabeled oligonucleotide and supershift assays with antibodies to p65.

NF-κB = test: NF-κB-dependent SEAP reporter assay in RW-treated SAEC
Experimental: The SAEC (1×10^5 cells/well) were plated in 24-well plates, serum-starved in SABM for 24 hours with or without AR inhibitors, sorbinil and zopolrestat (20 μM), and transiently transfected with pNF-κB-secretory alkaline phosphatase (SEAP) construct or control plasmid pTAL-SEAP DNA (Clontech, Palo Alto, Calif.) using the LipofectAMINE Plus reagent. After 6 hours of transfection, medium was replaced with fresh medium and cells were treated with RW (50 μg/mL) for 48 hours. The cell culture medium was harvested, centrifuged and supernatant was analyzed for SEAP activity, essentially as described by the manufacturer (Clontech, Palo Alto, Calif.), using a 96-well chemiluminescence plate reader.

SAEC [3] = test: TNF-α- and LPS-induced ROS generation in SAEC (DHE); conditions: TNF-α 2 nM or LPS 1 μg/mL, 16 h
Experimental: Dihydroethidium (DHE, Molecular Probes) staining for superoxide was carried out as described previously. Briefly, approximately 1×10^5 cells were seeded on chambered slides and starved in serum-free basal medium with AR inhibitor or carrier for 24 h. The cells were treated with TNF-α (2 nM) or LPS (1 μg/mL) or carrier for an additional 16 h. SAEC were rinsed with cold PBS and incubated in PBS containing HEt (2.5 μmol/L) at 37° C. for 15 min. Cells were rinsed in PBS and mounted with fluorsave mounting medium containing DAPI (Vector Laboratories Inc., Burlingame, Calif.). The image of ethidium staining was measured with a Nikon epifluorescence microscope with a 585 nm long-pass filter.

[4] = system: Cox-2, iNOS, Bax, Bcl-xl, cyclin D1, E2F2; test: TNF-α- and LPS-induced inflammatory, apoptosis and cell cycle proteins in SAEC (Western blotting); conditions: TNF-α 2 nM or LPS 1 μg/ml, 24 h
Experimental: The cells after incubations were lysed in RIPA lysis buffer, and forty micrograms of cytoplasmic proteins were resolved on 10% SDS-PAGE gel. After electrophoresis, the proteins were electro-transferred to a nitrocellulose membrane, blocked with 5% nonfat milk in TBST, and probed with antibodies against COX-2, NOS2, Bax, cyclin D1, E2F2 (1:1,000 dilution) for 2 hr. The blot was then washed, exposed to HRP-conjugated secondary antibodies (1:5,000 dilution) for 1 hr, and the antigen-antibody complex was detected by enhanced chemiluminescence (Amersham Pharmacia Biotech, Piscataway, N.J., USA).

How did the “prevention of RW-induced cell death” value (SAEC [1]) turn out when `O=C(O)Cc1nn(Cc2nc3cc(C(F)(F)F)ccc3s2)c(=O)c2ccccc12` [zopolrestat] was run?
Its value is > 80%.

And the “RW-induced increase in cellular ROS levels” value (SAEC [2])?
Its value is “prevented these changes”.

What about the “prevention of RW-induced NF-κB activation and nuclear translocation” value (NF-κB and AP-1; RW 50 μg/ml) of the same molecule?
Its value is > 80%.

And the “basal NF-κB activity, compound alone” value (NF-κB and AP-1; no RW)?
The value was “did not affect”.

And the inhibition at 20 µM (NF-κB; Homo sapiens, SAEC, AR inhibitor 20 μM, RW 50 μg/mL 48 hours, read-out: inhibition of RW-induced NF-κB-dependent SEAP activation)?
Its inhibition at 20 µM is > 60%.

And the “NF-κB-SEAP activity, compound alone” value (NF-κB; no RW)?
Its value is “did not affect”.

And the “TNF-α- and LPS-induced increase in ROS levels” value (SAEC [3])?
The value was “prevented these changes”.

What about the “TNF-α- and LPS-induced increase of Cox-2 and iNOS protein expression” value [4] of the same molecule?
Its value is “significantly prevented this increase”.
